The results in this text go back to patent publication US7435740B2 (King Pharmaceuticals Research and Development, Inc., priority 2005, dated 2008).

Read-outs that look alike come from different tables or passages of the source. Some results are limits rather than exact numbers.

The target of data set [1] is T1, human recombinant A3 adenosine receptors (Homo sapiens, UniProt P0DMS8).
T1 construct: expressed in transfected cells; host or cells: CHO cells (membranes)
T1 sequence (P0DMS8 1-318): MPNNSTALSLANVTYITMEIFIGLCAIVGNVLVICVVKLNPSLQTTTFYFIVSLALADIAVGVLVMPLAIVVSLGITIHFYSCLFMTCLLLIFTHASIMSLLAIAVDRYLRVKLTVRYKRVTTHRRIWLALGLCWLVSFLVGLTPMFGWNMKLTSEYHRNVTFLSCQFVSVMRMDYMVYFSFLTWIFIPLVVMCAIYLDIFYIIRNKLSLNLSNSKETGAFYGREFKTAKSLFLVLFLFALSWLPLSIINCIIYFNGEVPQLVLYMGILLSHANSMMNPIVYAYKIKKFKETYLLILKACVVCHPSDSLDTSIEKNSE
The data set is described as follows: [3H]-MRE 3008F20 binding to hA3 receptors expressed in CHO cells. The following applies: for Ki: CHO cell membranes, 1 nM [3H]-MRE 3008F20, geometric mean, confidence limits in the line below, read-out: [3H] MRE3008F20 binding to hA3 receptors expressed in CHO cells Ki; for [3H] MRE3008F20 binding to hA3 receptors, percentage in parentheses: percentage printed below the > bound, meaning not defined in the patent; for A3 receptor affinity (in words) / selectivity versus the adenosine hA1 subtype (in words): qualitative statement; for selectivity versus the adenosine hA1 subtype (in words): hA3 versus hA1.
Experimental: (§1) For membrane preparation the culture medium was removed and the cells were washed with PBS and scraped off T75 flasks in ice-cold hypotonic buffer (5 mM Tris HCl, 2 mM EDTA, pH 7.4).
(§2) The cell suspension was homogenized with Polytron and the homogenate was spun for 10 min at 1,000×g. The supernatant was then centrifuged for 30 min at 100,000×g. […] Then the suspension was frozen at −80° C.
Non-specific binding was defined as binding in the presence of 1 μM MRE 3008F20 and was about 30% of total binding.
(§3) Ki=IC50/(1+[C*]/KD*), where [C*] is the concentration of the radioligand and KD* its dissociation constant.

For data set [2], the target named is human recombinant A2A adenosine receptors (Homo sapiens, UniProt P29274). As to the kind of experiment: Radioligand binding to hA2A receptors expressed in CHO cells. The following applies: for [3H] ZM 241385 binding to hA2A receptors, percentage in parentheses: percentage given after the > bound, meaning not defined in the patent.
Sequence of human recombinant A2A adenosine receptors (P29274 whole entry): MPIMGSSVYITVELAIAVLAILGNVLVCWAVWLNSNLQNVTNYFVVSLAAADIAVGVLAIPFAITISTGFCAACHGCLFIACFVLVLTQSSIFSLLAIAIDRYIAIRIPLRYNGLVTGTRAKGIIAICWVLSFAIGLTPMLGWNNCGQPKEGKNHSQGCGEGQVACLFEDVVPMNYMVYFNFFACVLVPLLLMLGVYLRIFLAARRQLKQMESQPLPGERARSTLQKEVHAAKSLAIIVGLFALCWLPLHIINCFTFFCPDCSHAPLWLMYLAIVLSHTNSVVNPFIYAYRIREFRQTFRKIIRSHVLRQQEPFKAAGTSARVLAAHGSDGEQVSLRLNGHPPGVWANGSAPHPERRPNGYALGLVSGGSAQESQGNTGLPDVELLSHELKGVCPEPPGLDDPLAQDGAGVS
Experimental: as §1, §2, §3
The target of data set [3] is T2, human recombinant A1 adenosine receptor (Homo sapiens, UniProt P30542).
T2 sequence (P30542 1-326): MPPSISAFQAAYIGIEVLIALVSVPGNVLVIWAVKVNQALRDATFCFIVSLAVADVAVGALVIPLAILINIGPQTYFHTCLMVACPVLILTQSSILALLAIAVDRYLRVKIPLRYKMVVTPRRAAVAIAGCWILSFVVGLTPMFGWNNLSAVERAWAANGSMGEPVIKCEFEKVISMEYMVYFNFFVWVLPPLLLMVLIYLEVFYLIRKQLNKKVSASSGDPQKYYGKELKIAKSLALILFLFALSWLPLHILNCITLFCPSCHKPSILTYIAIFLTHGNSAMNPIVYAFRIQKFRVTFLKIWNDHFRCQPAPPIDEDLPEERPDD
As to the kind of experiment: [3H]-DPCPX binding to human A1 adenosine receptor expressed in CHO cells. The following applies: for [3H] DPCPX binding to hA1, percentage in parentheses: percentage given after the > bound, meaning not defined in the patent.
Experimental: as §1, §2, §3

In data set [4] the target is T3, human recombinant A2B adenosine receptor (Homo sapiens, UniProt P29275).
T3 sequence (P29275 1-332): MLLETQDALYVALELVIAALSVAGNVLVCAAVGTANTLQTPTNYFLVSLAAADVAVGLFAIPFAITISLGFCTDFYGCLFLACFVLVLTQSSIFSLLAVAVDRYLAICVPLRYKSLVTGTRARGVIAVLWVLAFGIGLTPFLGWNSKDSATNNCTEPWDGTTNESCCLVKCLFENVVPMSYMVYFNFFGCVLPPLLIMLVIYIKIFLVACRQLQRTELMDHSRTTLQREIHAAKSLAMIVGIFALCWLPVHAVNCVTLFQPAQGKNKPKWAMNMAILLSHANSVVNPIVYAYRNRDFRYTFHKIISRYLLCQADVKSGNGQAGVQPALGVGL
As to the kind of experiment: cAMP assay in CHO hA2B. The following applies: for IC50: confidence limits in parentheses, read-out: cAMP assay in CHO hA22B IC50; for cAMP assay in CHO hA22B, percentage in parentheses: percentage given after the > bound, meaning not defined in the patent. The format is cell-based.

Setting [5] is: read-out: [3H] DPCPX binding to hA1, CHO cell membranes, 1 nM [3H]-DPCPX, geometric mean with confidence limits in parentheses.

For `CCCn1c(=O)c2c(nc3n2CC(c2ccccc2)=C3)n(Cc2ccccc2)c1=O` [Compound 1, 1-Benzyl-7-phenyl-3-propyl-1H-pyrrolo[1,2-f]purine-2,4(3H,6H)-dione], the Ki in data set [1] came to 200 nM. Moreover, the “[3H] ZM 241385 binding to hA2A receptors, percentage in parentheses” value in data set [2] came out at 99%. Besides, the “[3H] DPCPX binding to hA1, percentage in parentheses” value in data set [3] is 75%.
Molecule `CCCn1c(=O)c2c(nc3[nH]c(-c4ccccc4)cn32)n(Cc2ccccc2)c1=O` [Compound 2, 1-Benzyl-7-phenyl-3-propyl-1H-imidazo[1,2-f]purine-2,4(3H,8H)-dione] returned a melting point of 255 °C. Moreover, in data set [1], the Ki came to 115 nM. Further, the “[3H] ZM 241385 binding to hA2A receptors, percentage in parentheses” value in data set [2] came out at 99%. Besides, the “[3H] DPCPX binding to hA1, percentage in parentheses” value in data set [3] came out at 83%.
The corresponding values for `CCCn1c(=O)c2c(nc3[nH]c(-c4ccc(OC)cc4)cn32)n(Cc2ccccc2)c1=O` [Compound 3, 1-Benzyl-7-(4-methoxyphenyl)-3-propyl-1H-imidazo[1,2-f]purine-2,4(3H,8H)-dione] are 257 °C, 55 nM, 99% and 99%.
In turn, `CCCn1c(=O)c2c(nc3[nH]c(-c4ccc(-c5ccccc5)cc4)cn32)n(Cc2ccccc2)c1=O` [Compound 4, 1-Benzyl-7-(biphenyl-4-yl)-3-propyl-1H-imidazo[1,2-f]purine-2,4(3H,8H)-dione] gave a melting point of 272 °C. In data set [1], the Ki is more than 1000 nM and the “[3H] MRE3008F20 binding to hA3 receptors, percentage in parentheses” value is “(90%)”. For the same molecule, in data set [2], the “[3H] ZM 241385 binding to hA2A receptors, percentage in parentheses” value was found to be 98%. Besides, the “[3H] DPCPX binding to hA1, percentage in parentheses” value in data set [3] is 95%.
Molecule `CCCn1c(=O)c2c(nc3[nH]c(-c4ccc(F)cc4)cn32)n(Cc2ccccc2)c1=O` [Compound 5, 1-Benzyl-7-(4-fluorophenyl)-3-propyl-1H-imidazo[1,2-f]purine-2,4(3H,8H)-dione] came in with a melting point of 250 °C. In data set [1], the Ki was determined as 22 nM. Besides, the “[3H] ZM 241385 binding to hA2A receptors, percentage in parentheses” value in data set [2] is reported as 97%. For the same molecule, in data set [3], the “[3H] DPCPX binding to hA1, percentage in parentheses” value is 90%.
`CCCn1c(=O)c2c(nc3n2CC(c2ccccc2)=NN3C)n(Cc2ccccc2)c1=O` [Compound 6, 8-Benzyl-1-methyl-3-phenyl-6-propyl-1,4-dihydro-8H-1,2,4a,6,8,9-hexaaza-fluorene-5,7-dione]: in data set [4], the IC50 is more than 1000 nM and the “cAMP assay in CHO hA22B, percentage in parentheses” value (from here on “cAMP assay in CHO hA22B, percentage”) is 94%. In data set [1], the Ki was more than 1000 nM and the “[3H] MRE3008F20 binding to hA3 receptors, percentage in parentheses” value is “(99%)”. Besides, in data set [2], the Ki was more than 1000 nM and the “[3H] ZM 241385 binding to hA2A receptors, percentage in parentheses” value was determined as 99%. In data set [3], the Ki was more than 1000 nM and the “[3H] DPCPX binding to hA1, percentage in parentheses” value is listed as 79%.
Consider `CCCn1c(=O)c2c(nc3n2CC(c2ccccc2)=NN3CCO)n(Cc2ccccc2)c1=O` [Compound 7, 8-Benzyl-1-(2-hydroxy-ethyl)-3-phenyl-6-propyl-1,4-dihydro-8H-1,2,4a,6,8,9-hexaaza-fluorene-5,7-dione], for which, in data set [4], the IC50 was more than 1000 nM and the “cAMP assay in CHO hA22B, percentage” value was 83%. For the same molecule, in data set [1], the Ki was more than 1000 nM and the “[3H] MRE3008F20 binding to hA3 receptors, percentage in parentheses” value is given as “(99%)”. In addition, in data set [2], the Ki was more than 1000 nM and the “[3H] ZM 241385 binding to hA2A receptors, percentage in parentheses” value turned out to be 99%. In addition, in data set [3], the Ki was more than 1000 nM and the “[3H] DPCPX binding to hA1, percentage in parentheses” value worked out at 91%.
On to `CCCn1c(=O)c2c(nc3[nH]c(-c4ccccc4)cn32)n(CCC)c1=O` [Compound 8, 7-Phenyl-1,3-dipropyl-1H-imidazo[1,2-f]purine-2,4(3H,8H)-dione], for which, in data set [4], the IC50 is more than 1000 nM and the “cAMP assay in CHO hA22B, percentage” value was 61%. Moreover, in data set [1], the Ki is 99 nM, the “A3 receptor affinity (in words)” value is “substantial maintenance of A3 receptor affinity” and the “selectivity versus the adenosine hA1 subtype (in words)” value is “significant loss of selectivity”. Besides, in data set [2], the Ki is more than 1000 nM and the “[3H] ZM 241385 binding to hA2A receptors, percentage in parentheses” value is 78%. For the same molecule, the Ki in data set [3] (setting [5]) amounted to 373 nM.
On to `CC(C)Cn1c(=O)c2c(nc3[nH]c(-c4ccccc4)cn32)n(CC(C)C)c1=O` [Compound 9, 1,3-Diisobutyl-7-phenyl-1H-imidazo[1,2-f]purine-2,4(3H,8H)-dione], for which, in data set [4], the IC50 was more than 1000 nM and the “cAMP assay in CHO hA22B, percentage” value was 99%. In data set [1], the Ki worked out at 144 nM, the “A3 receptor affinity (in words)” value is given as “substantial maintenance of A3 receptor affinity” and the “selectivity versus the adenosine hA1 subtype (in words)” value was “significant loss of selectivity”. In addition, in data set [2], the Ki is more than 1000 nM and the “[3H] ZM 241385 binding to hA2A receptors, percentage in parentheses” value is on record as 86%. Also, the Ki in data set [3] (setting [5]) was 476 nM.
Turning to `CCCn1c(=O)c2c(nc3[nH]c(C)cn32)n(Cc2ccccc2)c1=O` [Compound 10, 1-Benzyl-7-methyl-3-propyl-1H-imidazo[1,2-f]purine-2,4(3H,8H)-dione], the melting point came out at 255 °C. For the same molecule, the IC50 in data set [4] was found to be 2060 nM.
As for `CCCn1c(=O)c2c(nc3n2CC(C)=C3)n(Cc2ccccc2)c1=O` [Compound 17, 1-Benzyl-7-methyl-3-propyl-1H-pyrrolo[1,2-f]purine-2,4(3H,6H)-dione], in data set [4], the IC50 worked out at 400 nM. The Ki is 8 nM in data set [1], more than 5000 nM in data set [2] and 3030 nM in data set [3]. The “[3H] ZM 241385 binding to hA2A receptors, percentage in parentheses” value in data set [2] was determined as 99%.
As to `CCCn1c(=O)c2c(nc3n2CC(CC)=C3)n(Cc2ccccc2)c1=O` [Compound 18, 1-Benzyl-7-ethyl-3-propyl-1H-pyrrolo[1,2-f]purine-2,4(3H,6H)-dione], the “cAMP assay in CHO hA22B, percentage” value in data set [4] is on record as 71%.
As for `CCCn1c(=O)c2c(nc3n2C(C)C(C)=C3)n(Cc2ccccc2)c1=O` (stereo not shown) [Compound 19, 1-Benzyl-6,7-dimethyl-3-propyl-1H-pyrrolo[1,2-f]purine-2,4(3H,6H)-dione], the “cAMP assay in CHO hA22B, percentage” value in data set [4] was 60%. Besides, in data set [1], the Ki was 80 nM. The “[3H] ZM 241385 binding to hA2A receptors, percentage in parentheses” value in data set [2] is 91%. For the same molecule, the “[3H] DPCPX binding to hA1, percentage in parentheses” value in data set [3] came out at 65%.
`CCCn1c(=O)c2c(nc3[nH]c(CC)cn32)n(Cc2ccccc2)c1=O` [Compound 20, 1-Benzyl-7-ethyl-3-propyl-1H-imidazo[1,2-f]purine-2,4(3H,8H)-dione]: the melting point is 285 °C. Besides, the “cAMP assay in CHO hA22B, percentage” value in data set [4] is 97%. The Ki in data set [1] came out at 15 nM. Moreover, in data set [2], the “[3H] ZM 241385 binding to hA2A receptors, percentage in parentheses” value is 99%. The “[3H] DPCPX binding to hA1, percentage in parentheses” value in data set [3] was 65%.
Regarding `CCCn1c(=O)c2c(nc3[nH]c(C(C)C)cn32)n(Cc2ccccc2)c1=O` [Compound 21, 1-Benzyl-7-isopropyl-3-propyl-1H-imidazo[1,2-f]purine-2,4(3H,8H)-dione], the melting point is 128 to 130 °C. In addition, in data set [4], the “cAMP assay in CHO hA22B, percentage” value came out at 77%. For the same molecule, the Ki in data set [1] came out at 31 nM. The “[3H] ZM 241385 binding to hA2A receptors, percentage in parentheses” value in data set [2] was determined as 91%. In addition, the Ki in data set [3] (setting [5]) turned out to be 460 nM.
Consider `Cc1cn2c(nc3c2c(=O)n(C)c(=O)n3C)[nH]1` [Compound 27, 1,3,7-Trimethyl-1H-imidazo[1,2-f]purine-2,4(3H,8H)-dione], for which, in data set [4], the half-maximal inhibitory concentration (IC50) is more than 1000 nM and the “cAMP assay in CHO hA22B, percentage” value amounted to 88%. Also, in data set [1], the Ki is more than 1000 nM and the “[3H] MRE3008F20 binding to hA3 receptors, percentage in parentheses” value is “(93%)”. In data set [2], the Ki is more than 1000 nM and the “[3H] ZM 241385 binding to hA2A receptors, percentage in parentheses” value worked out at 99%. In data set [3], the Ki is more than 1000 nM and the “[3H] DPCPX binding to hA1, percentage in parentheses” value is 96%.

As usually defined, the melting point is the temperature of the solid-liquid transition. For orientation: IC50 means the concentration needed to halve the response being measured.
